As a reminder, the EC50 is the concentration at which the effect is half-maximal.

Non-standard residues stand in square brackets, D forms with d. Residues, ends and D or L forms follow the SMILES beside them. *: point of attachment. NH(4-picolyl) = c1cc(CN*)ccn1; dNle = CCCC[C@@H](N)C(=O)O

Data set [1] relates to peripheral pain (acetic acid-induced writhing). Put plainly: Acetic acid-induced writhing model (Example 1). Type of data set: in vivo, rat (male Sprague-Dawley). The note with it: oral gavage, screening dose 20 mg/kg, 20 min before i.p. 3% acetic acid; Student's t-test p<0.05. On the procedure:
Acetic Acid-Induced Writhing Model.
This protocol is a well-established model of peripheral pain. Following oral or i.v. administration of compound, rats are rested for 20 min before i.p. injection with 2 ml/kg of 3% acetic acid. Animals are then rested an additional 10 min before being placed in a 10×10 inch chamber. A video of the rats is then recorded for next 20 min. The video is subsequently blindly scored by an investigator who examines each rat every 20 sec for the entire 20 min (60 individual observations). At each observation rats are scored on whether they are writhing or not. Writhing is defined as a constriction of the abdominal area, often with extension of the hind legs. At the end of the experiment the percent of the time the animal was writhing was calculated. The dose-response curves and EC50 values were generated using GraphPad Prism®.
As an initial biological screen the potential for oral availability of the 18 peptides in our library were evaluated in a well-established model of peripheral pain, the acetic acid-induced writhing assay. Rats were administered the various compounds by oral gavage at a screening dose of 20 mg/kg 20 min before i.p. injection with 2 ml/kg of 3% acetic acid. 10 min later animals were assessed for writhing as indicated in the methods section. […] Thus, several of the Arg modifications can impart CR665 with the ability to cross the gut barrier. Compounds 3, 7, 9, 11 and 17 were selected for further analysis.
(In general: In writhing tests, fewer writhes than in controls are read as antinociception.)

For data set [2], the target named is kappa opioid receptor (Homo sapiens, UniProt P41145). Put plainly: Opioid receptor activation assay, DiscoveRx PathHunter Beta-Arrestin, kappa. Type of data set: cell-based. The note with it: PathHunter Beta-Arrestin; for EC50: 3-6 repeats, read-out: 95% confidence levels of EC50, activation of kappa receptors. From the text: Opioid Receptor Activation Assay.
PathHunter™ Beta-Arrestin GPCR Functional Profiling and Screening cell lines that express the individual opioid receptors were obtained from DiscoveRx (Fremont, Calif.). These cells express the kappa (or mu or delta) opioid receptor fused to a proprietary β-galactosidase enzyme fragment and the […]-arrestin gene fused to an enzyme acceptor (the remaining fragment of β-galactosidase). Upon activation of the receptor, β-arrestin is recruited to the GPCR and the β-galactosidase is activated through enzyme complementation. Cells were grown using standard cell culture techniques and then plated at 30,000 cells/well in 90 μl in a 96 well white, clear bottom plate and incubated overnight. Dilutions were prepared in dilution buffer (HBBS, 20 mMHepes, 0.1% BSA) and 10 μl added per well. Plates were then incubated for 90 min at 37° C. in a water-saturated atmosphere. Plates were then allowed to come to room temp and DiscoveRx's proprietary developing agent added as recommended by the manufacturer. This agent contains a detergent, 6-O-β-galactopyranosyl-luciferen and luciferase. Plates were then incubated for 1 hr at room temperature before being read on a luminometer. Antagonist studies were performed in an identical manner except after the overnight incubation 10 μl media was removed and replaced with drug or naloxone at the indicated concentration. […] To calculate % maximal luminescence, background was subtracted from the experimental values and this was divided by maximal luminescence and multiplied by 100.
To confirm this, and to determine their relative activities, we assessed their efficiency using PathHunter™ Beta-Arrestin GPCR Functional Profiling and Screening cell lines from DiscoveRx (Fremont, Calif.) as described in the Materials and Methods section.

In data set [3] the test system is abuse liability (lever pressing for intravenous drug delivery). The experiment in a line: Self-administration model. The conditions noted are these: cocaine 50 ug/50 ul bolus infusion, 7 days, after replacing JT09. It counts as in vivo, rat. From the text:
Self-Administration Model.
Addiction/dependence is a critical side effect of opioids and must be evaluated with any new member of this family. The most reliable test of abuse liability with the most translational relevance is a contingent drug self-administration model, in which rats are trained to press a lever for intravenous drug delivery. Sixteen standard self-administration chambers (30×20×20 cm, Med Associates) were housed inside sound-attenuating cubicles fitted with a fan for airflow and to mask noise. Each chamber contained two retractable levers, two stimulus lights, a speaker for tone delivery, and a house light to provide general illumination. In addition, each chamber was equipped with a balanced metal arm and spring leash attached to a swivel (Instech). Tygon® tubing extended through the leash and was connected to a 10 ml syringe mounted on an infusion pump located outside the sound-attenuating cubicle. Rats were anesthetized with i.p. injections of ketamine (66 mg/kg; Vedcolnc, St Joseph, Mo., USA), xylazine (1.3 mg/kg; Lloyd Laboratories, Shenandoah, Iowa, USA), and equithesin (0.5 ml/kg); sodium pentobarbital (4 mg/kg), chloral hydrate (17 mg/kg), and 21.3 mg/kg magnesium sulfate heptahydrate dissolved in 44% propylene glycol, 10% ethanol solution). Ketorolac (2.0 mg/kg, i.p. Sigma, St. Louis, Mo., USA) was given just prior to surgery as an analgesic. One end of a silastic catheter was inserted 33 mm into the external right jugular and secured with 4.0 silk sutures. The other end ran subcutaneously and exited from a small incision just below the scapula. This end is attached to an infusion harness (Instech Solomon, Plymouth Meeting, Pa., USA) that provides access to an external port for IV drug delivery. […]
During self-administration, rats received an IV infusion (0.1 ml) of 10 U/ml heparinized saline before each session. […] Cocaine was chosen for comparison purposes because it is readily self-administered.

The subject of data set [4] is central pain (acute thermal stimuli). The experiment in a line: Hot plate model (Example 2). Type of data set: in vivo, rat. The note with it: JT compounds 20 mg/kg oral; morphine 10 mg/kg i.p. On the procedure:
The hotplate model evaluates central pain attenuation in a rodent after applying an acute thermal stimuli. Experimental rats were orally gavaged with lead compounds JT07 or JT09 (20 mg/kg) and rested for 20 min prior to being placed on the hotplate. Control rats received i.p. injections of morphine (10 mg/kg) and rested for 20 min prior to be being placed on the hotplate. Rats were then assessed over time on a hotplate analgesia meter (Columbus Instruments, Columbus, Ohio), essentially a flat surface maintained at 53.0+/−0.2° C. The time until the rat lifted, nibbled, or shook one of its hind paws was recorded, which is known as the response latency. Animals remained on the hotplate no longer that 30 sec to avoid tissue damage. Experiments were scored as the percent of maximal possible effect (% MPE) calculated using the following equation: % MPE=[(post-drug latency−pre-drug latency)/(cut-off pre-drug latency)]×100%. The dose response curves and EC50 values were generated using GraphPad Prism.
As an initial screen for analgesic activity, JT07 and JT09 were evaluated in the hotplate analgesic model using a standard oral dose of 20 mg/kg. Percent maximum possible effect was analyzed for each compound and compared to morphine (10 mg/kg, i.p.).

In data set [5] the test system is sedation (distance traveled). Put plainly: Locomotor open field test. The note with it: JT09 20 mg/kg p.o.; morphine 10 mg/kg i.p. On the procedure: Locomotor Open Field Test.
Sedation and a loss of muscle coordination are common CNS-mediated side effects of opioids. To assess the sedative effects of JT09, rats were given JT09 (20 mg/kg, p.o.) or morphine (10 mg/kg, i.p.) 20 min before placement in an automated (68 l×21 w×21 h cm) activity chambers for a 30 min test. Morphine was used as a comparison group due to its well-known sedative effects.

Data set [6] relates to central pain (acute thermal stimuli). Put plainly: Hotplate model (Example 1). Type of data set: in vivo, rat (male Sprague-Dawley). The note with it: morphine at 5 mg/kg. On the procedure:
The hotplate model evaluates central pain attenuation in a rodent after applying an acute thermal stimuli. The rat is treated with compound and assessed over time on a hotplate analgesia meter (Columbus Instruments, Columbus, Ohio), essentially a flat surface maintained at 53.0+/−0.2° C. The time until the rat lifts, nibbles or shakes one of its hind paws is recorded, which is known as the response latency. Animals remain on the hotplate no longer than 30 sec to avoid tissue damage. Experiments are scored as the percent of maximal possible effect (% MPE) calculated using the following equation: % MPE=[(post-drug latency−pre-drug latency)/(cut-off pre-drug latency)]×100%. The dose response curves and EC50 values were generated using GraphPad Prism®.
As discussed, central availability of a kappa agonist can lead to undesirable side effects. To assess the peripheral to central selectivity of compound 9 an i.v. dose response of this drug was performed in both a model of peripheral pain (A. the writhing assay) and central pain (B. the hotplate assay). The ratio of EC50s for each of these assays can then be used to determine the peripheral selectivity of the drug.

Sequence of kappa opioid receptor (P41145 whole entry, the tested form may be a part): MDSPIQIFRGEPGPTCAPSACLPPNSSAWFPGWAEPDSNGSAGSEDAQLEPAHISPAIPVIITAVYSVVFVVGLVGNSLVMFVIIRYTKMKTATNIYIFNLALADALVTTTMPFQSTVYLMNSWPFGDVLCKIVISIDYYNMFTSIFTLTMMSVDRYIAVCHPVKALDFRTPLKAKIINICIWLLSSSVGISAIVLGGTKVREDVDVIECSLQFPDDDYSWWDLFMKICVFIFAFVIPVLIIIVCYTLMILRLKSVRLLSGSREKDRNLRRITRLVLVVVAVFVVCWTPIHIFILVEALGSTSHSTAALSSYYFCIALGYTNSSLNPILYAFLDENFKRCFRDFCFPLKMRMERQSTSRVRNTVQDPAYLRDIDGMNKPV

For the compound `CCCC[C@@H](NC(=O)[C@@H](Cc1ccccc1)NC(=O)[C@H](N)Cc1ccccc1)C(=O)N[C@H](CCCNC(=N)N)C(=O)NCc1ccncc1` [CR665, D-Phe-D-Phe-D-Nle-D-Arg-NH-4-Picolyl, reference compound] (H-[dF][dF][dNle][dR]-{NH(4-picolyl)}), the “effect on writhing (outward physical signs of peripheral pain) versus saline control” value in data set [1] was “did not have a significant effect”. Besides, in data set [2], the “EC50, activation of kappa opioid receptor” value (shortened to “EC50, activation”) is recorded as “low nM range” and the EC50 was in the range of 9.07 to 13.1 nM.

For the compound `CCCCNC(=N)NCCC[C@@H](NC(=O)[C@@H](CCCC)NC(=O)[C@@H](Cc1ccccc1)NC(=O)[C@H](N)Cc1ccccc1)C(=O)NCc1ccncc1` [Compound 3], in data set [2], the “EC50, activation” value is on record as “low nM range” and the EC50 lay in the range of 1.38 to 18.7 nM.

Regarding `CCCC[C@@H](NC(=O)[C@@H](Cc1ccccc1)NC(=O)[C@H](N)Cc1ccccc1)C(=O)N[C@H](CCCCNC1CCCCC1)C(=O)NCc1ccncc1` [Compound 7], in data set [2], the “EC50, activation” value is reported as “low nM range” and the EC50 is 5.63 to 13.1 nM.

Consider `CCCC[C@@H](NC(=O)[C@@H](Cc1ccccc1)NC(=O)[C@H](N)Cc1ccccc1)C(=O)N[C@H](CCCCNCc1ccccc1)C(=O)NCc1ccncc1` [Compound 11], for which, in data set [2], the “EC50, activation” value was “low nM range” and the EC50 is 8.15 to 26.8 nM.

For `CCCC[C@@H](NC(=O)[C@@H](Cc1ccccc1)NC(=O)[C@H](N)Cc1ccccc1)C(=O)N[C@H](CCC[N+](C)(C)C)C(=O)NCc1ccncc1` [Compound 17], in data set [2], the “EC50, activation” value is “low nM range” and the EC50 is 47.2 to 166 nM.

`COC(=O)[C@H]1[C@@H](OC(=O)c2ccccc2)C[C@@H]2CC[C@H]1N2C` [cocaine, reference compound]: the “number of cocaine infusions (nose-poke)” value in data set [3] is reported as “increased over the 7 days”.

With `CN1CC[C@]23c4c5ccc(O)c4O[C@H]2[C@@H](O)C=C[C@H]3[C@H]1C5` [morphine], in data set [4], the “analgesic activity in hotplate model (% maximum possible effect)” value is on record as “potent analgesic”. The “sedation in locomotor test” value in data set [5] is “highly sedative”. In addition, the “time of maximum response in hotplate assay” value in data set [6] was determined as 15 min.

Source of the values: US20200316159A1, “SUSTAINED RELEASE COMPOSITIONS OF KAPPA-OPIOID RECEPTOR AGONIST” (JT PHARMACEUTICALS, INC., priority 2016, published 2020).
